Experimental findings from US20170050966A1, “INHIBITING THE TRANSIENT RECEPTOR POTENTIAL A1 ION CHANNEL” (HYDRA BIOSCIENCES, INC., priority 2014, published 2017) are described below.

A short description of data set [1]: Oral PK and bioavailability of micronized Compound 2 suspension. Format: in vivo. The following applies: fasted cynomolgus monkeys. How it is done: Additional studies were conducted with micronized Compound 2 in rat, dogs (beagles), and cynomolgus monkeys. Animals received a 10 mg/kg dose oral dose of compound formulated as a suspension in 0.5% methyl cellulose in water for injection at a target concentration of 1 mg/mL, and administered a dose volume of 10 mL/kg by oral gavage in rats or fasted dogs and via oral delivery in fasted cynomolgus monkeys. The % F for the rats in these studies was 85%, 36% for the dogs, and 19% for the monkeys. FIG. 11 depicts the pharmacokinetic profile for these species.
Three studies were conducted in fasted cynomolgus monkeys to determine the PK profile and bioavailability of a suspension formulation of Compound 2. Three monkeys were administered a suspension containing 10 mg/kg micronized Compound 2 by oral gavage. Monkeys were bled before dosing and at 0.25, 0.50, 1, 2, 4, 6, 12, and 24 hours post-dosing. Compound 2 plasma levels were determined by LC/MS/MS. Additional studies were conducted to evaluate the PK profile at higher dose levels of Compound 2 administered to fasted monkeys as an oral suspension. Blood samples were collected prior to dosing and up to 24 hours post-dosing. An additional 48 hour blood sample was collected from monkeys dosed with 300 mg/kg Compound 2. Plasma levels of Compound 2 were determined by LC/MS/MS.

In data set [2] the test system is allergic sheep challenged with Ascaris suum. As to the kind of experiment: Sheep model of allergic bronchoconstriction and airway hyperresponsiveness. In kind it is in vivo. How it is done:
Compound 2 was also tested in the sheep model of allergic bronchoconstriction and airway hyperresponsiveness according to the methods disclosed in Abraham, W. M Palm Pharmacol Ther (2008) 21:743-754. Allergic sheep challenged with Ascaris suum show a substantial, biphasic increase in pulmonary resistance (RL). The first four hours are considered the early asthmatic response (EAR); the next four hours (hours 4-8) are considered to be the late asthmatic response (LAR). To assess airway responsiveness (AHR), the cumulative carbachol dose in breath units that increased pulmonary resistance 400% over the post-buffer value (PC 400) was calculated from the dose response curve. One breath unit was defined as one breath of a 1% w/v carbachol solution. A pre-challenge PC 400 was obtained 1-3 days before the start of dosing.
Compound 2 was formulated as a micronized powder suspended in 0.5% methylcellulose at a concentration of 6 mg/ml and administered orally at a dose of 30 mg/kg once a day for 4 days, at the same approximate time each day. Sheep were given 30 mg/kg Compound 2 orally daily four days. Two hours after the final dose of Compound 2, the sheep were subjected to an allergen (Ascaris) challenge. Each sheep was restrained in a prone position and its head was immobilized prior to topical anesthesia of the nasal passages. A balloon catheter was advanced through one nostril into the lower esophagus. Each sheep was intubated with a cuffed endotracheal tube through the other nostril. Tracheal and pleural pressures were determined using the endotracheal tube and balloon catheter, respectively. The trans-pulmonary pressure, i.e., the difference between the tracheal and pleural pressures, was measured using a differential pressure transducer catheter system. RL was determined by connecting the distal end of the endotracheal tube to a pneumotachograph. Data were collected from five to ten breaths to a computer and used to calculate RL. Data from the same sheep challenged with Ascaris prior to the initiation of Compound 2 treatment were used to establish baseline values. Monitoring conditions for the control and drug trials were identical.
On the day of challenge and two hours after the final dose of Compound 2, an aerosol of Ascaris suum (82,000 protein nitrogen units/mL) was generated using a nebulizer and delivered to the sheep using a Harvard respirator. RL was determined one hour prior to challenge, immediately following Ascaris challenge, and hourly thereafter for eight hours. Challenge to 4 hours is considered the EAR while 4 to 8 hours is considered the LAR.
Sheep were also challenged with aerosolized carbachol, a cholinergic agonist that has a negative impact on AHR. […]

Setting [3] is: 30 mg/kg orally once a day for 4 days.

`C[C@@H](C(=O)Nc1ccnc(-c2cnc(N3CCC[C@H]3C(F)(F)F)nc2)n1)n1cnc2c1c(=O)n(C)c(=O)n2C` [Compound 2, (S)-2-(1,3-dimethyl-2,6-dioxo-2,3-dihydro-1H-purin-7(6H)-yl)-N-(2′-((S)-2-(trifluoromethyl)pyrrolidin-1-yl)-[2,5′-bipyrimidin]-4-yl)propanamide] gave a bioavailability in data set [1] (cynomolgus monkey, plasma, 10 mg/kg oral, micronized suspension) of 19%. Besides, in data set [1] (oral suspension), the “Exposures on an AUC and Cmax basis versus dose” value was “increased with doses up to 1000 mg/kg”. In data set [2] (setting [3]), the “peak early airway responses” value is on record as “did not affect the peak early airway responses” and the “protection of late airway responses” value is reported as 85%. The “airway hyperresponsiveness (PC400)” value in data set [2] (30 mg/kg orally, carbachol challenge 24 hours after final dose) is “reduced the airway hyperresponsiveness to levels similar to those observed in sheep that were not challenged with Ascaris suum”. Moreover, in data set [2] (treatment trial, 30 mg/kg orally once a day for 4 days), the “average LAR (increase in pulmonary resistance)” value was 19±2.3%.

Broadly, the bioavailability is the share of a dose that reaches the circulation, judged against a reference dose that is usually intravenous. A high value points to much systemic uptake.
